Results on two compounds are retold here after ChEMBL document CHEMBL5463725, “Data for DCP probe BAY-277” (2023).

The target of assay [1] is Vasopressin V1a receptor (Homo sapiens) (UniProt P37288). Put plainly: Inhibition of Vasopressin V1A at 10.0 µM in the Eurofins Panlabs Safety Screen. The following applies: Compound concentration 10.0 uM.
Assay [2] concerns the target Growth hormone secretagogue receptor type 1 (Homo sapiens) (UniProt Q92847). Briefly: Inhibition of Growth Hormone Secretagogue (GHS, Ghrelin) at 10.0 µM in the Eurofins Panlabs Safety Screen. To be noted: Compound concentration 10.0 uM.
Assay [3] concerns the target Type-1 angiotensin II receptor (Homo sapiens) (UniProt P30556). Briefly: Inhibition of Angiotensin AT1 at 10.0 µM in the Eurofins Panlabs Safety Screen. The following applies: Compound concentration 10.0 uM.
The target in assay [4] is Muscarinic acetylcholine receptor M3 (Homo sapiens, UniProt P20309). Put plainly: GPCRScan assay: inhibition of M3. On the set-up: radioligand conc. used [nm] 0.3 – 1.0, parental cells stable CHO.
Assay [5] has as its target Glutamate receptor ionotropic, kainate 2 (Homo sapiens) (UniProt Q13002). Put plainly: Inhibition of Glutamate, Kainate at 10.0 µM in the Eurofins Panlabs Safety Screen. To be noted: Rattus norvegicus; Compound concentration 10.0 uM.
In assay [6] the target is Cannabinoid receptor 2 (Homo sapiens) (UniProt P34972). Put plainly: Inhibition of Cannabinoid CB2 at 10.0 µM in the Eurofins Panlabs Safety Screen. The following applies: Compound concentration 10.0 uM.
For assay [7], the target named is 5-hydroxytryptamine receptor 2B (Homo sapiens) (UniProt P41595). Briefly: Inhibition of Serotonin (5-Hydroxytryptamine) 5-HT2B at 10.0 µM in the Eurofins Panlabs Safety Screen. To be noted: Compound concentration 10.0 uM.
The target in assay [8] is Endothelin-1 receptor (Homo sapiens) (UniProt P25101). Put plainly: Inhibition of Endothelin ETA at 10.0 µM in the Eurofins Panlabs Safety Screen. The following applies: Compound concentration 10.0 uM.
The target of assay [9] is Alpha-1D adrenergic receptor (Homo sapiens) (UniProt P25100). The following applies: Compound concentration 10.0 uM.
Assay [10] has as its target 5-hydroxytryptamine receptor 3A (Homo sapiens) (UniProt P46098). The following applies: Compound concentration 10.0 uM.
The target in assay [11] is T1, Muscarinic acetylcholine receptor M4 (Homo sapiens) (UniProt P08173).
T1 sequence (whole entry): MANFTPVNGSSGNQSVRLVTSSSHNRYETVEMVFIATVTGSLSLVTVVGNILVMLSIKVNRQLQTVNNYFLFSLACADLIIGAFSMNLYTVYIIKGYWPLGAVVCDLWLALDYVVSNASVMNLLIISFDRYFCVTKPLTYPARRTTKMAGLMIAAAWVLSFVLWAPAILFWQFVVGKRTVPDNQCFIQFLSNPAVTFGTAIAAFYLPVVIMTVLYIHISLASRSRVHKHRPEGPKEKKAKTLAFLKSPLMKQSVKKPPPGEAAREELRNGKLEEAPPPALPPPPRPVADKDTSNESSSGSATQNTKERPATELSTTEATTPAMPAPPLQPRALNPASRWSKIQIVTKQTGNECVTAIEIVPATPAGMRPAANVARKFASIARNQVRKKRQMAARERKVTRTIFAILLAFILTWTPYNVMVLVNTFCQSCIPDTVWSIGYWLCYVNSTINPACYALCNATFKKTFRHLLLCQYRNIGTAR
Briefly: Inhibition of Muscarinic M4 at 10.0 µM in the Eurofins Panlabs Safety Screen. To be noted: Compound concentration 10.0 uM.

Assay [12] concerns the target T2, Alpha-2B adrenergic receptor (Homo sapiens) (UniProt P18089).
T2 sequence (whole entry): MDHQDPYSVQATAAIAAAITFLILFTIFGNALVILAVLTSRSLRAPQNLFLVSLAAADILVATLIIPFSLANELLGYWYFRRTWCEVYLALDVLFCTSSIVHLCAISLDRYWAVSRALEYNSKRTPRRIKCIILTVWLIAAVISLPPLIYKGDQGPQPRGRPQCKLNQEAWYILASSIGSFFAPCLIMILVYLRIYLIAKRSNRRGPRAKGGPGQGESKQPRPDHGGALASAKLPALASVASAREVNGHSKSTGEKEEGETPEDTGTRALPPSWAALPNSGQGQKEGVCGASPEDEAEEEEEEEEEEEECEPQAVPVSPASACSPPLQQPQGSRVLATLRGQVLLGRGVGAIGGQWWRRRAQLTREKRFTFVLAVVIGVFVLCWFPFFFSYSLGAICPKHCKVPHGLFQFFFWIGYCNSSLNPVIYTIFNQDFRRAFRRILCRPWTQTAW
The following applies: Compound concentration 10.0 uM.

Assay [13] addresses Glutamate NMDA receptor (Rattus norvegicus) (UniProt P35439+Q00959+Q00960+Q00961+Q62645+Q8VHN2+Q9R1M7). Briefly: Inhibition of Glutamate, NMDA, Agonism at 10.0 µM in the Eurofins Panlabs Safety Screen. In kind it is protein-complex assay. The following applies: Compound concentration 10.0 uM.
Assay [14] has as its target T3, Muscarinic acetylcholine receptor M2 (Homo sapiens, UniProt P08172).
T3 sequence (P08172 whole entry): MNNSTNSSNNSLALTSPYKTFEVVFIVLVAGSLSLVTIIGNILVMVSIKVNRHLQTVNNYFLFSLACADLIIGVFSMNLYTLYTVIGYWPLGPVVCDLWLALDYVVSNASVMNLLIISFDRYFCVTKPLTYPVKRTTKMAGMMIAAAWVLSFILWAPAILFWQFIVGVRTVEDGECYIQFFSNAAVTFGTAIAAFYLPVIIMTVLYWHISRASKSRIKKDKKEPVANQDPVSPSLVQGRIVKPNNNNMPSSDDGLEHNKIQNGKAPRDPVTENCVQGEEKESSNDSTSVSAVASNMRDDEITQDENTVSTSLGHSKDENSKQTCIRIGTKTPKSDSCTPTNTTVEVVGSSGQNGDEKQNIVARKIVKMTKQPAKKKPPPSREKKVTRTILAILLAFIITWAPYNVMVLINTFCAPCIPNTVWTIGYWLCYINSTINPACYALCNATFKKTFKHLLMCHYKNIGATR
Put plainly: GPCRScan assay: inhibition of M2. On the set-up: radioligand conc. used [nm] 0.2 – 1.0, parental cells stable CHO.

The target in assay [15] is 5-hydroxytryptamine receptor 2A (Homo sapiens) (UniProt P28223). To be noted: Compound concentration 10.0 uM.
Assay [16] deals with T4, Muscarinic acetylcholine receptor M1 (Homo sapiens) (UniProt P11229).
T4 sequence (whole entry): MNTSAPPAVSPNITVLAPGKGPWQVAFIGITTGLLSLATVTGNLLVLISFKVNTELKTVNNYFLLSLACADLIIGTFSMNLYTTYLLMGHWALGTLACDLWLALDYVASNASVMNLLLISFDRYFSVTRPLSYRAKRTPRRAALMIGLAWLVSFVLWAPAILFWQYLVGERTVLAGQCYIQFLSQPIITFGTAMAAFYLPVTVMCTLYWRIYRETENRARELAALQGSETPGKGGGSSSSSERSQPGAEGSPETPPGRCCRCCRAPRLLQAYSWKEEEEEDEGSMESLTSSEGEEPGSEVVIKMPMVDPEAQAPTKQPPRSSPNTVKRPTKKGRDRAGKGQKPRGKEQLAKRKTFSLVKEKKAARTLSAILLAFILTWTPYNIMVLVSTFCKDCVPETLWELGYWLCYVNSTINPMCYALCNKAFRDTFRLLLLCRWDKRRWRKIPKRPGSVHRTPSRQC
Put plainly: Inhibition of Muscarinic M1 at 10.0 µM in the Eurofins Panlabs Safety Screen. The following applies: Compound concentration 10.0 uM.

Alpha-1D adrenergic receptor (Homo sapiens), sequence (P25100 whole entry): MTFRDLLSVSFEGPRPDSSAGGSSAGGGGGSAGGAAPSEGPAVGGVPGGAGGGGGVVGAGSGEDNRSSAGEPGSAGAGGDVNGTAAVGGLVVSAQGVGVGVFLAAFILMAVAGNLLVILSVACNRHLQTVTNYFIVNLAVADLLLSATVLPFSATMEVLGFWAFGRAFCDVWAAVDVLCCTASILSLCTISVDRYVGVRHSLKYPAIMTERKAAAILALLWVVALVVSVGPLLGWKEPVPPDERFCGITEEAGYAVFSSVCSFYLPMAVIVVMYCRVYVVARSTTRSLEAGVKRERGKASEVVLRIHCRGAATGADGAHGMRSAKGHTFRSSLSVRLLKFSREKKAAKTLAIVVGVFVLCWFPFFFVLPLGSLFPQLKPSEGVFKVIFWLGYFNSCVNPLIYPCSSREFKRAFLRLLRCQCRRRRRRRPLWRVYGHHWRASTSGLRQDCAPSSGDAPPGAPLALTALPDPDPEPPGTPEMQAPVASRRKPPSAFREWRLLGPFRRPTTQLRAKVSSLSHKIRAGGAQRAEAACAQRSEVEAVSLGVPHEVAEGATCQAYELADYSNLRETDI
Muscarinic acetylcholine receptor M3, sequence (P20309 whole entry): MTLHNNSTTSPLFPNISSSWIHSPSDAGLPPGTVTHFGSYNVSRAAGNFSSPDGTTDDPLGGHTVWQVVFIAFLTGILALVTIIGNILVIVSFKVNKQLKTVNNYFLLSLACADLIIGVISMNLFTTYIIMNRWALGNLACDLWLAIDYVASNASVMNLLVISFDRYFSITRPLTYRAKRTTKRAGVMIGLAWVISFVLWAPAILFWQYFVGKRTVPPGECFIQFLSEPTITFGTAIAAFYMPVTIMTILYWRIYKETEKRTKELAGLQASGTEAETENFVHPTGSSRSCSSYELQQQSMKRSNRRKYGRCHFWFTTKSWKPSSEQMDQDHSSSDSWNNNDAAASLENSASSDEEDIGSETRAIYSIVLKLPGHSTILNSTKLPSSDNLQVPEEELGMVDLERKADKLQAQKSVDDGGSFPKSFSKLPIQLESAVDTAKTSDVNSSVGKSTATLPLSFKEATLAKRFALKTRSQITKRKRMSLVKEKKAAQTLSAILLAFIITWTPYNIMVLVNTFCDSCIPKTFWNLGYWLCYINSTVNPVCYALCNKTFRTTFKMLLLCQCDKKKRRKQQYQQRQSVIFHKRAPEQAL
5-hydroxytryptamine receptor 3A (Homo sapiens), sequence (P46098 whole entry): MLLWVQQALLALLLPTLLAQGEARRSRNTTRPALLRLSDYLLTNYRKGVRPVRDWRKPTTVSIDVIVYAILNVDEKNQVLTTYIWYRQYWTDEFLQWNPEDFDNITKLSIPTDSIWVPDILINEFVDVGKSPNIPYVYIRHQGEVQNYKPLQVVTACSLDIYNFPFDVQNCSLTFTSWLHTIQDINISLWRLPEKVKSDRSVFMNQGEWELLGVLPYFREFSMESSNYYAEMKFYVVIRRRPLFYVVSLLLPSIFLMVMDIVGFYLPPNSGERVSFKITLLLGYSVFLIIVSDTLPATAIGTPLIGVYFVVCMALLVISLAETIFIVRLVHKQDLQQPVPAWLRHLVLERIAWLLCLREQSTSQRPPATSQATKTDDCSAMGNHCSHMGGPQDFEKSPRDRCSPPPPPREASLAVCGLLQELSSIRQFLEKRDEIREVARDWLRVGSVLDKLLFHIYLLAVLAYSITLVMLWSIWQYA
5-hydroxytryptamine receptor 2A (Homo sapiens), sequence (P28223 whole entry): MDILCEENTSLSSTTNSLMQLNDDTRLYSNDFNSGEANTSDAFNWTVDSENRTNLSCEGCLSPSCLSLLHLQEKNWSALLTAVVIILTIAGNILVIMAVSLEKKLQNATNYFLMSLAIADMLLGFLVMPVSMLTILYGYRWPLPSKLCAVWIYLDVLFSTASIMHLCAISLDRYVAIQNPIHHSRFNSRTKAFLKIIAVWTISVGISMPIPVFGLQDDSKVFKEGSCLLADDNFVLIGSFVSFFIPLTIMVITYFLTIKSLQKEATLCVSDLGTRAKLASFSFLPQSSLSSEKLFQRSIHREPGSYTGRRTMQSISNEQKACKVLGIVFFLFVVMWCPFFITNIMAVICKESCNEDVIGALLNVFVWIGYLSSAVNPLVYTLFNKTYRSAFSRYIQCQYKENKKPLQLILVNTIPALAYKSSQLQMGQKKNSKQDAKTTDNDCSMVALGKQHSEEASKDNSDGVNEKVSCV
Type-1 angiotensin II receptor (Homo sapiens), sequence (P30556 whole entry): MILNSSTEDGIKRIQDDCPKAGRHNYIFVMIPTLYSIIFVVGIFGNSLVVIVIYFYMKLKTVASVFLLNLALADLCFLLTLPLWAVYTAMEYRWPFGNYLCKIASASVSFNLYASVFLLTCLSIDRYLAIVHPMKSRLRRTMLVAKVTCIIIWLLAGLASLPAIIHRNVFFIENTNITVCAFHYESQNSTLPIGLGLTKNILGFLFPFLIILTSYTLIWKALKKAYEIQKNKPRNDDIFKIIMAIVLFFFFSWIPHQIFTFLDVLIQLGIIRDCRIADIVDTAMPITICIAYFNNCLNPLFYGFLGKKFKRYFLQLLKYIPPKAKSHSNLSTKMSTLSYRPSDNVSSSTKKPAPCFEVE
Cannabinoid receptor 2 (Homo sapiens), sequence (P34972 whole entry): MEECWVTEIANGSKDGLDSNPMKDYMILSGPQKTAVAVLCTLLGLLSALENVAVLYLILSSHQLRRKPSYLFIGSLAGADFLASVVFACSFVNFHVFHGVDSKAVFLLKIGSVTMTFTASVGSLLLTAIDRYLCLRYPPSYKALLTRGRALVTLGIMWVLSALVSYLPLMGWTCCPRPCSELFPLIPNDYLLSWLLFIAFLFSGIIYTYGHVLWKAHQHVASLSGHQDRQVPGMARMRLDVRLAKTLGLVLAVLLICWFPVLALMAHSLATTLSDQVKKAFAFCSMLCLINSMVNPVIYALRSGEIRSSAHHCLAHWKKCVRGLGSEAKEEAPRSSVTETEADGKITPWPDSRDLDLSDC
5-hydroxytryptamine receptor 2B (Homo sapiens), sequence (P41595 whole entry): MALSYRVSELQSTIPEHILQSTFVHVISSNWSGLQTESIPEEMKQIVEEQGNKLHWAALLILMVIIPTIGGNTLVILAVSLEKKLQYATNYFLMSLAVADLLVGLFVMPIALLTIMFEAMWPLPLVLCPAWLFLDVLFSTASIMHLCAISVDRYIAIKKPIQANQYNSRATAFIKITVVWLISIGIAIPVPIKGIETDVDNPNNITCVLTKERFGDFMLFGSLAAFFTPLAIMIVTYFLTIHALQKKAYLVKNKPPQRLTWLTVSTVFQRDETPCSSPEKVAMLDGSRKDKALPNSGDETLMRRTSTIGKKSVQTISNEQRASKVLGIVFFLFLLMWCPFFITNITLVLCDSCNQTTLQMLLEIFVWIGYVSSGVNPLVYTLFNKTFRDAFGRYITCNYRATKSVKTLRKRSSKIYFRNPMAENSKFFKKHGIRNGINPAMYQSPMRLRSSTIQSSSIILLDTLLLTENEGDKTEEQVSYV
Endothelin-1 receptor (Homo sapiens), sequence (P25101 whole entry): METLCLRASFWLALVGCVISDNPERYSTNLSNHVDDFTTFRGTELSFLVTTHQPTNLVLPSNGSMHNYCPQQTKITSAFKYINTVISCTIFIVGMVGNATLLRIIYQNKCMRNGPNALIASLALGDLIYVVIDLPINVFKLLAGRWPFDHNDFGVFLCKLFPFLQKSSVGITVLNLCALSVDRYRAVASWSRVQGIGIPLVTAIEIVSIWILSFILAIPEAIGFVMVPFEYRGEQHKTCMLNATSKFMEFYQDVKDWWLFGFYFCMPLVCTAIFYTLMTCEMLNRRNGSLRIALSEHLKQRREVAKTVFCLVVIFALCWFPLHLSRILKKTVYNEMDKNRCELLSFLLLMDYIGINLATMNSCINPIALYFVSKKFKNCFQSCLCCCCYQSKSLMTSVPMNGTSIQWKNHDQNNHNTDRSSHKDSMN
Vasopressin V1a receptor (Homo sapiens), sequence (P37288 whole entry, looked up): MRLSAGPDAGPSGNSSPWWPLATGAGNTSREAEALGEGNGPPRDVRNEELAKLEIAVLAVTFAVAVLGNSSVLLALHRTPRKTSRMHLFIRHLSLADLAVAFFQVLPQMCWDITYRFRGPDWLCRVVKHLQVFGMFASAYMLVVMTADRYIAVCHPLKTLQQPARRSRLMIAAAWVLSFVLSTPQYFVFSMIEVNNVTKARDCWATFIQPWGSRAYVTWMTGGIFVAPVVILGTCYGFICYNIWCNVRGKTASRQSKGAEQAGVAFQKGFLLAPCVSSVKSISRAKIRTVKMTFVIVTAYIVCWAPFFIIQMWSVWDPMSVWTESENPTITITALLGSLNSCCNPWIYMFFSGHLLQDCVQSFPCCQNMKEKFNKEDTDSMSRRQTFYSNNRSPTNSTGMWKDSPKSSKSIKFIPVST
Growth hormone secretagogue receptor type 1 (Homo sapiens), sequence (Q92847 whole entry): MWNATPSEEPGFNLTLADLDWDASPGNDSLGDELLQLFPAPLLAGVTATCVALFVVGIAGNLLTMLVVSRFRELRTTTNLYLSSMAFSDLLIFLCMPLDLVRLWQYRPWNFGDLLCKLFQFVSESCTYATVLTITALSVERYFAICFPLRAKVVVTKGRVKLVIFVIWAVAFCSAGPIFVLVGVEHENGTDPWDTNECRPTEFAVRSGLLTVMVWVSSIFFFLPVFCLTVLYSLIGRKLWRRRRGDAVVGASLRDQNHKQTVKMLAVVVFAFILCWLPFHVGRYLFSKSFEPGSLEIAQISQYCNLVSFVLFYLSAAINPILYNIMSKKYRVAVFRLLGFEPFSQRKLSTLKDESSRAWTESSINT

With `O=C1NCCCC1N1Cc2cc(C3CCN(C(=O)CCCCCN4CCC(c5ccc(Oc6nn7cnnc7c7c6CCCC7)cc5)CC4)CC3)ccc2C1=O` (stereo unspecified), the inhibition in [1] is -3%; in assay [2] it was 5%; in assay [3] it was 2%; in assay [5] it was 1%; in [6], 12%; in [7], 10%. Moreover, the inhibition is 3% in [8]; 8.76% in assay [9]; 23.8% in [10]; 57% in [11]; 8.66% in assay [12]; 0% in [13]. Further, the inhibition in assay [15] was 21%; in [16] it was 53%. Besides, the Ki in [4] (read-out: Ki) was 1.89 µM; in assay [4] (read-out: pKi (converted)), 1.86 µM; in [14] (read-out: Ki) it was 1.07 µM; in assay [14] (read-out: pKi (converted)), 1.05 µM.

With `O=C1CCC(N2Cc3cc(C4CCN(C(=O)CCCCCN5CCC(c6ccc(Oc7nn8cnnc8c8c7CCCC8)cc6)CC5)CC4)ccc3C2=O)C(=O)N1` (stereo unspecified), the inhibition in [1] was -8%; in [2], 2%; in [3] it was -4%; in assay [5], -2%; in assay [6] it was 14%; in [7], 41%. For the same compound, the inhibition in assay [8] is -1%; in assay [9] it was 19.8%; in assay [10], 22.9%; in [11] it was 70%; in [12], 8.76%; in assay [13], 21%. Further, the results for the inhibition in assay [15] and in assay [16] were 18.6% and 53%, respectively. Also, the Ki in [4] (read-out: Ki) was 2.26 µM; in [4] (read-out: pKi (converted)), 2.09 µM; in assay [14] (read-out: Ki), 0.677 µM; in assay [14] (read-out: pKi (converted)), 0.676 µM.
